Reference: paper PMC9841532, “Exploring the Effect of Halogenation in a Series of Potent and Selective A2B Adenosine Receptor Antagonists” (Journal of Medicinal Chemistry, 2022)
Like-named read-outs stand apart in the source and are kept apart here.

Key:
[1] = target: T1, hA1AR (Homo sapiens, UniProt P30542); experiment: Radioligand binding competition, [3H]DPCPX, membranes from CHO-A1 cells; settings: 1 μM, [3H]DPCPX, human CHO cells, n = 2
T1 sequence (P30542 1-326): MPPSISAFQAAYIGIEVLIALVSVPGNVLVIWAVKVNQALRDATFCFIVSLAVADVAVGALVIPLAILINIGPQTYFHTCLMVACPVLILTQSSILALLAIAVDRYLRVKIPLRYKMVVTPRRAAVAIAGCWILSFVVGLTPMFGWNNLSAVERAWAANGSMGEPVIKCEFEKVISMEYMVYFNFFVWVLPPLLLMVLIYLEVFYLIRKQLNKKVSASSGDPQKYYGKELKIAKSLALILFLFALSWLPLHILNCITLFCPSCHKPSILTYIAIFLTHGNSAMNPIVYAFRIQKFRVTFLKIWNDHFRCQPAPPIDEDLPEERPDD
Method in brief: (§1)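 Racemates, plus selected enantiomers after chiral resolution, were tested at 25 °C, with a 60 min incubation for one subtype and 30 min for others. Non-specific binding was defined with 10 μM or 100 μM R-PIA. Bound radioactivity was counted after washing and filtration.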

[2] = target: T2, hA2AAR (Homo sapiens, UniProt P29274); experiment: Radioligand binding competition, [3H]ZM241385, membranes from HeLa-A2A cells; settings: 1 μM, [3H]ZM241385, human HeLa cells, n = 2
T2 construct: expressed in transfected cells; host or cells: HeLa (HeLa-A2A) cell membranes
T2 sequence (P29274 whole entry): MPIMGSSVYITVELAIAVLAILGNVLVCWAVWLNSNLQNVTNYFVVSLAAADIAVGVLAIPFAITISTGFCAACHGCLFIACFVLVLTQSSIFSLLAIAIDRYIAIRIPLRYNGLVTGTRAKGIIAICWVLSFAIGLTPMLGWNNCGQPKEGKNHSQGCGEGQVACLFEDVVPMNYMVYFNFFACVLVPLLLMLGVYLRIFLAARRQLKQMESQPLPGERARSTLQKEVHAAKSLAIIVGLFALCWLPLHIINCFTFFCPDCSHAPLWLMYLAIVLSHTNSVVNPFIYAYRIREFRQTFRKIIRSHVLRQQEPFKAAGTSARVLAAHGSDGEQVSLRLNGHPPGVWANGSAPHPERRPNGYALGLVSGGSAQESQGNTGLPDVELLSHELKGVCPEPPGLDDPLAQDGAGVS
Method in brief: as §1

[3] = target: T3, hA2BAR (Homo sapiens, UniProt P29275); experiment: Radioligand binding competition, [3H]DPCPX, membranes from HEK-293-A2B cells; settings: read-out: Ki hA2B
T3 construct: host or cells: HEK-293 (HEK-293-A2B) cell membranes
T3 sequence (P29275 1-332): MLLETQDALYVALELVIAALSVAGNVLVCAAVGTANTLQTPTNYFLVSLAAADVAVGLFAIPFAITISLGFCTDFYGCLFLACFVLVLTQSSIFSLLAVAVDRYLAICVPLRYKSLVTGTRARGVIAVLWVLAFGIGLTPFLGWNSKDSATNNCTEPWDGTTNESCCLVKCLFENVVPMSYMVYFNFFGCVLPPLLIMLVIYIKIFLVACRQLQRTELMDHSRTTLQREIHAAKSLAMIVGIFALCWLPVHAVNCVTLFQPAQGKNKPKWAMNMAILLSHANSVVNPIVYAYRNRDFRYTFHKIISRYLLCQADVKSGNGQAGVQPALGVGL
Method in brief: as §1

[4] = target: T4, hA3AR (Homo sapiens, UniProt P0DMS8); experiment: Radioligand binding competition, [3H]NECA, membranes from HeLa-A3 cells; settings: 1 μM, [3H]NECA, human HeLa cells, n = 2
T4 construct: expressed in transfected cells; host or cells: HeLa (HeLa-A3) cell membranes
T4 sequence (P0DMS8 1-318): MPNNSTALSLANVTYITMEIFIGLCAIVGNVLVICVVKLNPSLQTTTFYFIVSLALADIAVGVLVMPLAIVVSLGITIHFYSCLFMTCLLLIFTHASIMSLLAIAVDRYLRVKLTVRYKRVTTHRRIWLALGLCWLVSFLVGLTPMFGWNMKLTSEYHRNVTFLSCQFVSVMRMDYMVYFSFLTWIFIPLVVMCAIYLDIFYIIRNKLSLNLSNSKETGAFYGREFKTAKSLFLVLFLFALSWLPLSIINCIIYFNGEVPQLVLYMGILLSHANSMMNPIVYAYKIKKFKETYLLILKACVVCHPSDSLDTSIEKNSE
Method in brief: as §1

[5] = target: T5, A2BAR (Homo sapiens, UniProt P29275); experiment: cAMP accumulation assay in HEK-293 cells permanently expressing A2BAR-SNAP; type: cell-based; settings: read-out: KB (hA2B)
T5 construct: expressed in transfected cells; host or cells: HEK-293 T cells permanently expressing pRK5-A2BAR^SNAP
T5 sequence (P29275 1-332): T3 sequence (P29275 1-332)
Procedure: To assess their ability to block A2BAR agonist intrinsic activity, the effect on A2BAR-mediated cAMP accumulation and cellular impedance was evaluated. To this end, we used HEK-293 cells permanently expressing the A2BAR^SNAP construct, which can be visualized upon staining the cells with a SNAP-fluorescent substrate.
Scale bar: […]. […] Data are expressed as mean ± SEM (n = 4).
cAMP accumulation was measured using the LANCE Ultra cAMP kit (PerkinElmer, Waltham, Massachusetts, USA) as previously described.[55] […] The 384-well plate was incubated 1 h at 22 °C in the dark and was then read on a CLARIOstar Microplate Reader (BMG Labtech, Durham, North Carolina, USA). […] Data were fitted by non-linear regression using GraphPad Prism 9 (San Diego, California, USA).

[6] = target: T5, A2BAR; experiment: Cellular impedance label-free assay (xCELLigence) in A2BAR-SNAP cells; type: cell-based; settings: compound 1 μM, NECA 1 μM, 45 min, n = 4
Text: To further evaluate the ability of 16b, 16j, 16r, and 16s to preclude A2BAR function in living cells, we took advantage of the cellular impedance label-free method, a widely accepted morphological and functional biosensor of cell status.[39] Accordingly, whole-cell NECA-mediated impedance responses of A2BAR^SNAP cells were monitored in real time in the absence or presence of 16b, 16j, 16r, and 16s.
Figure 4 Blockade of A2BAR-mediated whole-cell label-free responses. (A) Representative example of the impedance signal obtained over the time upon incubation with A2BAR ligands. […] (B) The area under the curve (AUC) derived from the normalized cell index (NCI) shown in (A) was calculated for each condition. Data are expressed as mean ± SEM (n = 4). ***P < 0.001 and **P < 0.01, one-way ANOVA with a Dunnett’s multiple-comparison test when compared to vehicle (Veh).
The xCELLigence RTCA system (Roche) was employed to assess the impact of blocking A2BAR-mediated effects in cellular impedance upon receptor activation, as previously described.[57]−[60] To this end, A2BAR^SNAP cells were growth in 16-well E-plates (Roche), using DMEM supplemented with 1 mM sodium pyruvate, 2 mM L-glutamine, 100 U/mL streptomycin, […] penicillin, and 1.5% (v/v) fetal bovine serum in the presence of 0.5 U/mL of ADA. Of note, wells were previously coated with 50 μL fibronectin (10 μg/mL; Sigma-Aldrich) and the background index for each well was determined with supplemented DMEM (90 μL) in the absence of cells. Subsequently, A2BAR^SNAP cells (90 μL) were plated at a cell density of 10,000 cells/well and grown for 18 h in the RTCA SP device station (Roche) at 37 °C in an atmosphere of 5% CO2. Then, before ligand addition, cell index values were normalized to the same time point using the RTCA software, providing the normalized cell index (NCI). After ligand stimulation, NCI was recorded every 15 s for a total time of at least 45 min. The area under the curve (AUC) for every condition was calculated using GraphPad Prism 9.

CCOC(=O)C1=C(C)Nc2nc3cc(Br)ccc3n2C1c1ccoc1 (stereo not shown) [16s]
% at 1 μM hA1 (percentage displacement of specific binding) [1]: 1%
% at 1 μM hA2A (percentage displacement of specific binding) [2]: 37%
Ki ([3]; displacement of specific [3H]DPCPX binding in human HEK-293 cells, n = 3): 3.32 ± 0.4 nM
Ki [3]: < 10 nM
% at 1 μM hA3 (percentage displacement of specific binding) [4]: 25%
Kb [5]: 1.5 ± 0.5 nM
Blockade of NECA-induced changes in cellular impedance (AUC of normalized cell index) [6]: significantly blocked
